We go through eight molecules from ChEMBL document CHEMBL1138967, “Design, synthesis, and biological evaluation of novel tricyclic HIV-1 integrase inhibitors by modification of its pyridine ring” (Bioorg Med Chem Lett, 2006).

The test system of one experiment is MT4. Put plainly: Cytotoxicity against MT4 cells. Type of experiment: functional. The note with it: Homo sapiens.
The target of experiment [1] is Human immunodeficiency virus type 1 integrase (Human immunodeficiency virus 1, UniProt Q7ZJM1). The experiment in a line: Inhibition of strand transfer activity in HIV1 integrase.
Chain of Human immunodeficiency virus type 1 integrase (Q7ZJM1 whole entry): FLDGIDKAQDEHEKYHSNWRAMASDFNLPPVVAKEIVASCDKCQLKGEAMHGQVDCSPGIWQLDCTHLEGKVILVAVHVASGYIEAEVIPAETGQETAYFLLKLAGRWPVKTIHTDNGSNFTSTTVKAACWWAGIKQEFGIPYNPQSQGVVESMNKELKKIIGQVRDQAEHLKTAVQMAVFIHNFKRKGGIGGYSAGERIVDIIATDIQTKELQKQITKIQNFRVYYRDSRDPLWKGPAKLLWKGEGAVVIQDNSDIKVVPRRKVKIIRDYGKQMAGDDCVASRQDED
For experiment [2], the system named is Human immunodeficiency virus 1. Put plainly: Antiviral activity against HIV1 3B in MT4 cells. The format is functional, organism-based. The settings on record: Human immunodeficiency virus 1, 3B.

Consider `COc1c2c(c(O)c3ncccc13)C(=O)N(Cc1ccc(F)cc1)C2`, for which it took 5100 nM to reach half-maximal cytotoxicity in the experiment with MT4 (CC50).

Molecule `COc1c2c(c(O)c3nccnc13)C(=O)N(Cc1ccc(F)cc1)C2` displayed a CC50 with MT4 of 87000 nM. Moreover, in experiment [1], the IC50 came to 210 nM. The molecule further registered an EC50 in experiment [2] of 3550 nM.

Consider `COc1c2c(c(O)c3ncc(F)cc13)C(=O)N(Cc1ccc(F)cc1)C2`, for which the midpoint of cytotoxicity in the experiment with MT4, the CC50, lay at 33300 nM. For the same molecule, the results for the IC50 in experiment [1] and in experiment [2] were 7.2 nM and 1540 nM, respectively.

Consider `CN(C)S(=O)(=O)Oc1c2c(c(O)c3nccnc13)C(=O)N(Cc1ccc(F)cc1)C2`, for which, in the experiment on MT4, half-maximal cytotoxicity (CC50) was put at 2700 nM. The same molecule displayed an IC50 in experiment [1] of 33 nM. The molecule also returned an EC50 in experiment [2] of 540 nM.

For `COc1c2c(c(O)c3ncn(Cc4ccccc4)c13)C(=O)N(Cc1ccc(F)cc1)C2`, in the experiment with MT4, the CC50 was determined as 25000 nM. The IC50 in experiment [1] is 24000 nM; in experiment [2], above 10000 nM.

As for `CN(C)S(=O)(=O)Oc1c2c(c(O)c3ncccc13)C(=O)N(Cc1ccc(F)cc1)C2`, in the experiment with MT4, the CC50 is 1400 nM. The EC50 in experiment [2] came to 7 nM.

Turning to `COc1c2c(c(O)c3c1NCCN3)C(=O)N(Cc1ccc(F)cc1)C2`, the IC50 was 850 nM in experiment [1] and above 10000 nM in experiment [2].

In the experiment with MT4, `COc1cnc2c(O)c3c(c(OC)c2c1)CN(Cc1ccc(F)cc1)C3=O` came in with a CC50 of 2100 nM. The molecule also came in with an IC50 in experiment [1] of 93 nM. The molecule also had an EC50 in experiment [2] of 70 nM.
